Measured values as given in PubChem BioAssay (NCI).
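Following 48 hours of exposure in 96-well plates, responses at five concentrations were used to interpolate endpoints linearly. GI50: concentration for 50% inhibition of growth. TGI is the concentration that stops growth completely.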

Tests used:
Test in all cases: inhibition of tumour cell growth, NCI panel, 48 h
MCF7 breast = system: MCF7 breast
HL-60(TB) leukemia = system: HL-60(TB) leukemia
CCRF-CEM leukemia = system: CCRF-CEM leukemia
HOP-62 NSCLC = system: HOP-62 NSCLC
A498 renal = system: A498 renal
HS 578T breast = system: HS 578T breast
LOX IMVI melanoma = system: LOX IMVI melanoma
OVCAR-8 ovarian = system: OVCAR-8 ovarian
U251 CNS = system: U251 CNS
NCI-H226 lung = system: NCI-H226 lung
SK-MEL-5 melanoma = system: SK-MEL-5 melanoma
CAKI-1 renal = system: CAKI-1 renal
COLO 205 colon = system: COLO 205 colon
BT-549 breast = system: BT-549 breast
UACC-257 melanoma = system: UACC-257 melanoma
OVCAR-4 ovarian = system: OVCAR-4 ovarian
SF-295 CNS = system: SF-295 CNS
UO-31 renal = system: UO-31 renal
SW-620 colon = system: SW-620 colon
SK-MEL-2 melanoma = system: SK-MEL-2 melanoma
MALME-3M melanoma = system: MALME-3M melanoma
OVCAR-5 ovarian = system: OVCAR-5 ovarian
SN12C renal = system: SN12C renal
ACHN renal = system: ACHN renal
HOP-92 NSCLC = system: HOP-92 NSCLC
PC-3 prostate = system: PC-3 prostate
UACC-62 melanoma = system: UACC-62 melanoma
KM12 colon = system: KM12 colon
K-562 leukemia = system: K-562 leukemia
NCI-H23 lung = system: NCI-H23 lung
HCT-116 colon = system: HCT-116 colon
DU-145 prostate = system: DU-145 prostate
A549 NSCLC = system: A549 NSCLC
HCC-2998 colon = system: HCC-2998 colon
SNB-19 CNS = system: SNB-19 CNS
HT29 colon = system: HT29 colon
RXF 393 renal = system: RXF 393 renal
SR leukemia = system: SR leukemia
NCI-H522 lung = system: NCI-H522 lung
EKVX NSCLC = system: EKVX NSCLC
MOLT-4 leukemia = system: MOLT-4 leukemia
TK-10 renal = system: TK-10 renal
MDA-MB-231 breast = system: MDA-MB-231 breast
IGROV1 ovarian = system: IGROV1 ovarian
NCI-H460 lung = system: NCI-H460 lung
SF-268 CNS = system: SF-268 CNS
SNB-75 CNS = system: SNB-75 CNS
SF-539 CNS = system: SF-539 CNS
786-0 renal = system: 786-0 renal
OVCAR-3 ovarian = system: OVCAR-3 ovarian
SK-OV-3 ovarian = system: SK-OV-3 ovarian
RPMI-8226 leukemia = system: RPMI-8226 leukemia
HCT-15 colon = system: HCT-15 colon
T-47D breast = system: T-47D breast
SK-MEL-28 melanoma = system: SK-MEL-28 melanoma
NCI/ADR-RES ovarian = system: NCI/ADR-RES ovarian

## COc1cc(/C=C2\C(=O)Nc3ccc(N(C)C)cc32)cc(OC)c1OC
MCF7 breast
  GI50: 1510 nM
  TGI: > 100 µM
HL-60(TB) leukemia
  GI50: 1350 nM
  TGI: 5.8 µM
CCRF-CEM leukemia
  GI50: 2280 nM
  TGI: 10.1 µM
HOP-62 NSCLC
  GI50: 8.48 µM
  TGI: 50.2 µM
A498 renal
  GI50: 4.67 µM
  TGI: > 100 µM
HS 578T breast
  GI50: 3.89 µM
  TGI: > 100 µM
LOX IMVI melanoma
  GI50: 3.2 µM
  TGI: 18.6 µM
OVCAR-8 ovarian
  GI50: 4.46 µM
  TGI: > 79.4 µM
U251 CNS
  GI50: 3.1 µM
  TGI: 14.6 µM
NCI-H226 lung
  GI50: 14.2 µM
  TGI: > 100 µM
SK-MEL-5 melanoma
  GI50: 2750 nM
  TGI: 24.6 µM
CAKI-1 renal
  GI50: 5.78 µM
  TGI: > 80.5 µM
COLO 205 colon
  GI50: 1890 nM
  TGI: 4.73 µM
BT-549 breast
  GI50: 2490 nM
  TGI: 14.5 µM
UACC-257 melanoma
  GI50: 6.73 µM
  TGI: > 100 µM
OVCAR-4 ovarian
  GI50: 3.7 µM
  TGI: > 100 µM
SF-295 CNS
  GI50: 3.16 µM
  TGI: > 100 µM
UO-31 renal
  GI50: 3.17 µM
  TGI: > 87.4 µM
SW-620 colon
  GI50: 2700 nM
  TGI: > 100 µM
SK-MEL-2 melanoma
  GI50: 2770 nM
  TGI: 8.31 µM
MALME-3M melanoma
  GI50: 3.23 µM
  TGI: > 30.2 µM
OVCAR-5 ovarian
  GI50: 5.86 µM
  TGI: > 80.2 µM
SN12C renal
  GI50: 4.26 µM
  TGI: 42.3 µM
ACHN renal
  GI50: 4.72 µM
  TGI: 98.4 µM
HOP-92 NSCLC
  GI50: 3.17 µM
  TGI: 36.3 µM
PC-3 prostate
  GI50: 1730 nM
  TGI: > 100 µM
UACC-62 melanoma
  GI50: 2500 nM
  TGI: > 100 µM
KM12 colon
  GI50: 1690 nM
  TGI: 13.2 µM
K-562 leukemia
  GI50: 580 nM
  TGI: > 25.6 µM
NCI-H23 lung
  GI50: 3.07 µM
  TGI: > 100 µM
HCT-116 colon
  GI50: 2940 nM
  TGI: > 43.9 µM
DU-145 prostate
  GI50: 3.08 µM
  TGI: > 29.3 µM
A549 NSCLC
  GI50: 3.86 µM
  TGI: 35.9 µM
HCC-2998 colon
  GI50: 8.46 µM
  TGI: 46.4 µM
SNB-19 CNS
  GI50: 3.67 µM
  TGI: > 100 µM
HT29 colon
  GI50: 2110 nM
  TGI: > 100 µM
RXF 393 renal
  GI50: 240 nM
  TGI: 1280 nM
SR leukemia
  GI50: 340 nM
  TGI: 2400 nM
NCI-H522 lung
  GI50: 1470 nM
  TGI: 5.75 µM
EKVX NSCLC
  GI50: 5.25 µM
  TGI: > 100 µM
MOLT-4 leukemia
  GI50: 2870 nM
  TGI: > 30.9 µM
TK-10 renal
  GI50: 6.42 µM
  TGI: 40.6 µM
MDA-MB-231 breast
  GI50: 4.26 µM
  TGI: > 63.8 µM
IGROV1 ovarian
  GI50: 1500 nM
  TGI: 5.43 µM
NCI-H460 lung
  GI50: 2980 nM
  TGI: > 29.1 µM
SF-268 CNS
  GI50: 3.92 µM
  TGI: 33.1 µM
SNB-75 CNS
  GI50: 1740 nM
  TGI: 6.33 µM
SF-539 CNS
  GI50: 2440 nM
  TGI: 7.88 µM
786-0 renal
  GI50: 4.3 µM
  TGI: 33.3 µM
OVCAR-3 ovarian
  GI50: 1410 nM
  TGI: 4.29 µM
SK-OV-3 ovarian
  GI50: 3.55 µM
  TGI: 30.4 µM
RPMI-8226 leukemia
  GI50: 1110 nM
  TGI: 4.14 µM
HCT-15 colon
  GI50: 1230 nM
  TGI: 49.8 µM
T-47D breast
  GI50: 2490 nM
  TGI: > 31.3 µM
SK-MEL-28 melanoma
  GI50: 5.87 µM
  TGI: > 100 µM
NCI/ADR-RES ovarian
  GI50: 1930 nM
  TGI: 6.27 µM
